# Laboratory results as given in patent US9896447B2, “TrkA kinase inhibitors, compositions and methods thereof” (MERCK SHARP & DOHME CORP., priority 2013, dated 2018).
# Biological target: TrkA receptor (Homo sapiens (Human), UniProt P04629)
# Assay: DiscoverX PathHunter TrkA functional assay (U2OS cells, NGF stimulated)
# Assay type: cell-based
# Conditions: U2OS cells expressing TrkA-Prolink and Shc1-EA; compound 1 hour, then EC80 of NGF for 3 hours; luminescence
# Protocol: TrkA functional activity was measured using a DiscoverX PathHunter assay. In this assay, U2OS cells are express TrkA receptor as a fusion with the weakly complementing fragment of B-galactosidase, which DiscoverX calls “Prolink (PK)”; additionally, Shc1 is fused with a larger fragment, which is called “Enzyme Acceptor (EA)”. Activation of the TrkA receptor, upon NGF addition, results in the kinase domain being phosphorylated, resulting in subsequent recruitment of Shc1-EA protein. That recruitment results in an active B-galactosidase enzyme that is detected by addition of a chemiluminescent substrate.
# All reagents were purchased from DiscoverX, except for the receptor agonists (NGF, BDNF, NT3) which were purchased from Peprotech. Cells were expanded and frozen into cryovials (TrkA p75 @ passage 13, 1.5×10^7 cells/vial; TrkC p75 @ passage 11, 1.5×10^7 cells/vial in InVitrogen Recovery Cell Freezing media), and stored in the vapor phase of liquid nitrogen, and thawed immediately before use. Thawed cells were added to a 384-well plate (BD Falcon 384-well white/clear, TC surface 120 uL assay plates (353963), 20 uL of 0.375e6 cells/mL=>7500 cells/well), and allowed to incubate overnight. Compound (10 mM starting dose: 202.5 nL compound yielding 0.81% DMSO final in total assay volume and starting doses 81 uM) was added the following morning and allowed to incubate on cells for 1 hour. Then, 5 uL EC80 of agonist (NGF for TrkA; BDNF for TrkB; NT3 for TrkC) was added and allowed to incubate for 3 hours at room temperature. DiscoverX PathHunter detection reagent is added (12 uL to plate and components diluted in parts as per kit instructions) and the plate is further incubated for 1 hour in the dark. The plate is read via luminescence on the Perkin Elmer Envision.
# Sequence of TrkA receptor (P04629 33-796): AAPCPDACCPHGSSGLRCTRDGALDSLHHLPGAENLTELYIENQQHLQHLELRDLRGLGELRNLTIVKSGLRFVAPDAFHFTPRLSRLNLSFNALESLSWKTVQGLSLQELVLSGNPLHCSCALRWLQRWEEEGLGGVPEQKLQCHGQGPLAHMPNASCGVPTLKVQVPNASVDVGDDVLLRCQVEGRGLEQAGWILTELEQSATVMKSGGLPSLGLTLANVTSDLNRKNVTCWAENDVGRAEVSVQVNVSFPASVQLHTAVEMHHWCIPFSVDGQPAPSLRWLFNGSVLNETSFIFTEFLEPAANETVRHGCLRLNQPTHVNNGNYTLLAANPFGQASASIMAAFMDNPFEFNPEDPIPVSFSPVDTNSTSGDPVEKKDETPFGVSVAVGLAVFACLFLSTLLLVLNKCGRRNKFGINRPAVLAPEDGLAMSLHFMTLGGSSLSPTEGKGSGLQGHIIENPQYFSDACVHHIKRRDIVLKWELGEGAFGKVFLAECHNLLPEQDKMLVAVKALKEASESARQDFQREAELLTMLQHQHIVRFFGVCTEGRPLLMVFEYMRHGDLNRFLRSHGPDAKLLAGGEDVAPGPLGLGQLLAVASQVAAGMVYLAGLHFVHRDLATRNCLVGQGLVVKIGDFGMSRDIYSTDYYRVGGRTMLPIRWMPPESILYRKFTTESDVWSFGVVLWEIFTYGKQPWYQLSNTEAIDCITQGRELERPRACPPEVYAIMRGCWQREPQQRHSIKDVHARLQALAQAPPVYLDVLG
row,Compound,IC50 [nM]
1,"O=C(Nc1c(-c2ccccc2)nc2ccccn12)Nc1c(-c2ccccc2)nc2ccccn12 [Compound 1, 1,3-bis(2-phenylimidazo[1,2-a]pyridin-3-yl)urea]",82
2,"O=C(Nc1ccccn1)Nc1cc(-c2ccccc2)nn1-c1ccccc1 [Compound 2, 1-(1,3-diphenyl-1H-pyrazol-5-yl)-3-pyridin-2-ylurea]",160
3,"Cc1cc(NC(=O)Nc2cc(C)nn2-c2ccccc2)n(-c2ccccc2)n1 [Compound 3, 1,3-bis(3-methyl-1-phenyl-1H-pyrazol-5-yl)urea]",2700
4,"Cc1cc(NC(=O)Nc2cccc3ccccc23)n(-c2ccccc2)n1 [Compound 4, 1-(3-methyl-1-phenyl-1H-pyrazol-5-yl)-3-naphthalen-1-ylurea]",590
5,"Cc1cc(NC(=O)Nc2cccc(Br)n2)n(-c2ccccc2)n1 [Compound 5, 1-(6-bromopyridin-2-yl)-3-(3-methyl-1-phenyl-1H-pyrazol-5-yl)urea]",4800
6,"Cc1cc(NC(=O)Nc2ccccc2-c2ccccc2)n(-c2ccccc2)n1 [Compound 6, 1-biphenyl-2-yl-3-(3-methyl-1-phenyl-1H-pyrazol-5-yl)urea]",420
7,"Cc1cc(NC(=O)Nc2cccc(C)c2C)n(-c2ccccc2)n1 [Compound 7, 1-(2,3-dimethylphenyl)-3-(3-methyl-1-phenyl-1H-pyrazol-5-yl)urea]",4800
8,"Cc1cc(NC(=O)Nc2cc(Br)ccn2)n(-c2ccccc2)n1 [Compound 8, 1-(4-bromopyridin-2-yl)-3-(3-methyl-1-phenyl-1H-pyrazol-5-yl)urea]",3000
9,"O=C(Nc1ccccn1)Nc1cc(-c2ccncc2)nn1-c1ccccc1 [Compound 9, 1-(1-phenyl-3-pyridin-4-yl-1H-pyrazol-5-yl)-3-pyridin-2-ylurea]",350
10,"Cc1cc(NC(=O)Nc2ccccn2)n(-c2ccccc2)n1 [Compound 10, 1-(3-methyl-1-phenyl-1H-pyrazol-5-yl)-3-pyridin-2-ylurea]",1800
11,"COc1ccc(NC(=O)Nc2cc(C)nn2-c2ccccc2)nc1 [Compound 11, 1-(5-methoxypyridin-2-yl)-3-(3-methyl-1-phenyl-1H-pyrazol-5-yl)urea]",3400
12,"Cc1ccc(NC(=O)Nc2ccccn2)c(-c2ccccc2)n1 [Compound 12, 1-(6-methyl-2-phenylpyridin-3-yl)-3-pyridin-2-ylurea]",1100
13,"Cc1ncc(NC(=O)Nc2ccccc2-c2ccccc2)c(-c2ccccc2)n1 [Compound 13, 1-biphenyl-2-yl-3-(2-methyl-4-phenylpyrimidin-5-yl)urea]",2300
14,"Cc1onc(-c2ccccc2)c1NC(=O)NCc1ccccc1C(F)(F)F [Compound 14, 1-(5-methyl-3-phenylisoxazol-4-yl)-3-[2-(trifluoromethyl)benzyl]urea]",350
15,"Cc1ncc(NC(=O)Nc2cccc3ccccc23)c(-c2ccccc2)n1 [Compound 15, 1-(2-methyl-4-phenylpyrimidin-5-yl)-3-naphthalen-1-ylurea]",4100
16,"O=C(Nc1cccc2ccccc12)Nc1c(-c2ccccc2)nc2sccn12 [Compound 16, 1-naphthalen-1-yl-3-(6-phenylimidazo[2,1-b][1,3]thiazol-5-yl)urea]",290
17,"Cc1ncc(NC(=O)Nc2cnc(C)nc2-c2ccccc2)c(-c2ccccc2)n1 [Compound 17, 1,3-bis(2-methyl-4-phenylpyrimidin-5-yl)urea]",1400
18,"CSc1ncc(NC(=O)Nc2cnc(SC)nc2-c2ccccc2)c(-c2ccccc2)n1 [Compound 18, 1,3-bis[2-(methylsulfanyl)-4-phenylpyrimidin-5-yl]urea]",280
19,"Cc1ncc(NC(=O)Nc2ccccn2)c(-c2ccccc2)n1 [Compound 20, 1-(2-methyl-4-phenylpyrimidin-5-yl)-3-pyridin-2-ylurea]",4000
20,"Cc1ncc(NC(=O)Nc2c(-c3ccccc3)nc3ccccn23)c(-c2ccccc2)n1 [Compound 21, 1-(2-methyl-4-phenylpyrimidin-5-yl)-3-(2-phenylimidazo[1,2-a]pyridin-3-yl)urea]",150
